# The supplement of paper PMC11451515
# Tested on: SEM cells
# Test: AUC of viability dose-response curve (% viability x log10 dose units); higher = less sensitive
# Details: 48 h
# In short: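 Seeding of medium-adapted leukemia cells was at 500 or 1000 cells/well in 1536-well plates, followed by 48 h at 37°C with library compounds in DMSO at 11 threefold doses from 47 μM to 0.79 nM. CellTiter-Glo One luminescence was normalised per plate to DMSO and cell-free wells and fitted as a four-parameter log-logistic function of log10 dose. Area under the curve was integrated by trapezoidal rule, with curves exceeding full viability scaled and curves failing quality control removed.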
# [1] = RPMI 5 mM glucose + 10% dialyzed FBS
Structure (SMILES),AUC of viability dose-response curve (HPLM + 10% dialyzed FBS),AUC of viability dose-response curve (RPMI 5 mM glucose + 10% FBS),AUC of viability dose-response curve [1]
COc1ccc2c(c1)CC[C@@H](CN(C)CC(=O)O)[C@H]2c1ccccc1,373,362,385
CCCCc1oc2ccccc2c1C(=O)c1cc(I)c(OCCN(CC)CC)c(I)c1,458,465,454
CC(=O)O/N=C1/C(=C2\C(=O)Nc3cc(Br)ccc32)Nc2ccccc21,324,317,308
CC1CCN(c2cc(N3CCN(C)CC3)ccc2NC(=O)c2cc(C#N)c[nH]2)CC1,456,444,451
